Counter-ions that a name gives are not always drawn. Some results are limits rather than exact numbers.

One may read the Ki as the dissociation constant of the complex between target and ligand, obtained from inhibition or displacement.

For one experiment, the target named is T1, MMP-1 (Homo sapiens, UniProt P03956).
T1 construct: made in house; host or cells: MMP-1-transfected HT-1080 cells (spent media)
T1 sequence (P03956 100-469): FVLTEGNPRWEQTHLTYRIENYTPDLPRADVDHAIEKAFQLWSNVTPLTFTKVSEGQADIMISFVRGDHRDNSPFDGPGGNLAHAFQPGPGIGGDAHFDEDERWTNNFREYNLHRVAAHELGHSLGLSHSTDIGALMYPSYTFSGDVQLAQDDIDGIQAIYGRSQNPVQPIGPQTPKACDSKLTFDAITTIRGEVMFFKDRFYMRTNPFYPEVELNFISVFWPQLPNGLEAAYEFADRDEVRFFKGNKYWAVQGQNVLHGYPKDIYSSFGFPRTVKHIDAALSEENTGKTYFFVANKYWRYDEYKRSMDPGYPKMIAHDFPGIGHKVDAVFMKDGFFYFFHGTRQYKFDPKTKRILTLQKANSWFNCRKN
The experiment can be described thus: In vitro MMP inhibition, Ki determination (fluorogenic substrate II). In kind it is biochemical. Conditions: MMP-1 Ki, value not in parenthesis. How it is done:
Several hydroxamic acids and salts thereof were analyzed in in vitro assays to determine their ability to inhibit the MMP cleavage of peptide substrates. […] and IC50 constants were calculated from the assayed hydroxamic acid-MMP interactions.
Human recombinant MMP-1, MMP-2, MMP-9, MMP-13, and MMP-14 were used in this assay. All enzymes were prepared in Assignee's laboratories following usual laboratory procedures. Protocols for the preparation and use of these enzymes are available in the scientific literature. See, e.g., Enzyme Nomenclature (Academic Press, San Diego, Calif., 1992) (and the citations therein). See also, Freije et al., “Molecular cloning and expression of collagenase-3, a novel human matrix metalloproteinase produced by breast carcinomas,” J Biol. Chem., 269(24), 16766-16773 (1994).
The MMP-1 proenzyme was purified from the spent media of MMP-1-transfected HT-1080 cells provided by Dr. Harold Welgus of Washington University (St. Louis, Mo.). The protein was purified on a zinc chelating column.
All MMPs were activated using 4-aminophenylmercuric acetate (“APMA”, Sigma Chemical, St. Louis, Mo.) or trypsin. MMP-9 also was activated using human recombinant MMP-3 (purified in Assignee's laboratory following standard cloning and purification techniques).
Two fluorogenic, methoxycoumarin-containing polypeptide substrates were used in the MMP inhibition assays: [drawing 427] Here, “Dpa” is 3-(2,4-dinitrophenyl)-L-2,3-diaminopropionyl group, and “MCA” is 7-methoxycoumarin-4-yl acetyl. Substrate (I) was purchased from Baychem (Redwood City, Calif.), and substrate II was prepared Assignee's laboratory. Substrate I was used in the IC50 determination assays, while substrate II was used in the Ki determination assays. In the absence of MMP inhibitory activity, either substrate is cleaved at the Gly-Leu peptide bond. This cleavage separates the highly fluorogenic peptide from the 2,4-dinitrophenyl quencher, thus resulting in increase of fluorescent intensity.
The stock solutions of the assayed hydroxamic acids (or salts thereof) were prepared in 1% dimethyl sulfoxide (DMSO). These stock solutions were diluted in Buffer A (100 mM Tris-HCl, 100 mM NaCl, 10 mM CaCl2, 0.05% polyoxyethylene 23 lauryl ether, pH 7.5) to obtain solutions with different hydroxamic acid concentrations, i.e., assay solutions with different concentrations of the assayed MMP inhibitory compound. The experiment controls contained the same amount of Buffer A/DMSO as the assayed sample, but contained no hydroxamic acid (or salt thereof).
The assays from which the Ki determinations were made were performed as follows. The assayed hydroxamic acid samples were incubated in separate wells of untreated white polystyrene plates (Nunc Nalgene International, Rochester, N.Y.), and analyzed on a Tecan SpectraFlour Plus plate reader. The excitation wavelength was 330 nm, and the emission wavelength—420 nm. All samples (assayed hydroxamic acids and controls) were incubated in separate plate wells at room temperature for 1 hr in the presence of 4 μM of MMP substrate (II). In the absence of MMP inhibitory activity, substrate II was cleaved at the Gly-Leu bond resulting in an increase of relative fluorescence. Inhibition was observed as a reduced rate of this increase in relative fluorescence. The various hydroxamic acids were analyzed using a single low enzyme concentration with a single substrate concentration fixed at or below the Km. This protocol is a modification of method by Knight et al., FEBS Lett., 296(3), 263-266 (1992). Apparent inhibitory constants were determined by non-linear regression of reaction velocity as a function of inhibitor and enzyme concentration using Morrison's equation, as described by Kuzmic, Anal. Biochem. 286, 45-50 (2000). […] Since the substrate concentration was chosen to be at or below the Km, the apparent Ki's from this analysis were reported as Ki's without correction for the influence of substrate.
For the molecule `O=C(NO)C1(S(=O)(=O)N2CCN(c3ccc(COCC(F)(F)C(F)(F)C(F)(F)F)cc3)CC2)CCOCC1` [Example 69], the Ki is above 10 µM.

Staying with this experiment, now noted: human recombinant enzyme; 4 μM substrate II; room temperature, 1 hr; read-out: MMP-1 Ki.
In the case of `CCCCCc1ccc(N2CCN(S(=O)(=O)C3(C(=O)NO)CCOCC3)CC2)c(F)c1` [Example 23, 4-{[4-(2-fluoro-4-pentylphenyl)piperazin-1-yl]sulfonyl}-N-hydroxytetrahydro-2H-pyran-4-carboxamide Hydrochloride], the Ki was above 10 µM.

Regarding `O=C(NO)C1(S(=O)(=O)N2CCC(c3ccc(CCC(F)(F)C(F)(F)F)cc3)CC2)CCOCC1` [Example 18, N-hydroxy-4-({4-[4-(3,3,4,4,4-pentafluorobutyl)phenyl]piperidin-1-yl}sulfonyl)tetrahydro-2H-pyran-4-carboxamide], the Ki was determined as 7.35 µM.

Take `O=C(NO)C1(S(=O)(=O)N2CCN(c3ccc(OCC(F)(F)F)cc3)CC2)CCOCC1` [Example 2, N-hydroxy-4-({4-[4-(2,2,2-trifluoroethoxy)phenyl]piperazin-1-yl}sulfonyl)tetrahydro-2H-pyran-4-carboxamide Hydrochloride]: the inhibition constant (Ki) is above 10 µM. On the same count and under the same terms, the value for `CCOc1ccc(N2CCN(S(=O)(=O)C3(C(=O)NO)CCOCC3)CC2)cc1` [Example 3, 4-{[4-(4-ethoxyphenyl)piperazinyl]sulfonyl}perhydro-2H-pyran-4-carbohydroxamic Acid] was 7.53 µM; that for `CCCCc1cnc(N2CCN(S(=O)(=O)C3(C(=O)NO)CCOCC3)CC2)cn1` [Example 1, 4-{[4-(5-butylpyrazin-2-yl)piperazin-1-yl]sulfonyl}-N-hydroxytetrahydro-2H-pyran-4-carboxamide Dihydrochloride] was above 10 µM. Same read-out and setting: the value for `CCCCCc1ccc(N2CCN(S(=O)(=O)C3(C(=O)NO)CCN(CCOC)CC3)CC2)cc1F` [Example 13, 4-{[4-(3-fluoro-4-pentylphenyl)piperazin-1-yl]sulfonyl}-N-hydroxy-1-(2-methoxyethyl)piperidine-4-carboxamide Dihydrochloride] was above 10 µM; that for `CCCCc1ccc(C2CCN(S(=O)(=O)C3(C(=O)NO)CCN(C4CC4)CC3)CC2)nc1` [Example 24, 4-{[4-(5-butylpyridin-2-yl)piperidin-1-yl]sulfonyl}-1-cyclopropyl-N-hydroxypiperidine-4-carboxamide Hydrochloride] was above 10 µM; that for `CCCCCc1ccc(N2CCN(S(=O)(=O)C3(C(=O)NO)CCN(CC)CC3)CC2)cc1F` [Example 22, 1-ethyl-4-{[4-(3-fluoro-4-pentylphenyl)piperazin-1-yl]sulfonyl}-N-hydroxypiperidine-4-carboxamine Hydrochloride] was above 10 µM. Same read-out and setting: as for `O=C(NO)C1(S(=O)(=O)N2CCC(c3cnc(OCC(F)(F)C(F)(F)F)cn3)CC2)CCOCC1` [Example 27], the figure is 4.78 µM; as for `O=C(NO)C1(S(=O)(=O)N2CCC(c3ccc(OCC(F)(F)F)cc3)CC2)CCN(C2CC2)CC1` [Example 25, 1-cyclopropyl-N-hydroxy-4-({4-[4-(2,2,2-trifluoroethoxy)phenyl]piperidin-1-yl}sulfonyl)piperidine-4-carboxamide Hydrochloride], above 10 µM.

The experiment is the same for the next values; noted with them: value not in parenthesis; read-out: MMP-1 Ki.
As to `CC(C)(C)N1CCC(C(=O)NO)(S(=O)(=O)N2CCN(c3ccc(OCCCC(F)(F)F)cc3F)CC2)CC1` [Example 116], the Ki is above 10 µM. With `O=C(NO)C1(S(=O)(=O)N2CCN(c3ncccn3)CC2)CCOCC1` [Example 106], the inhibition constant Ki turned out to be 1.47 µM. On the same count and under the same terms, as for `CCCc1ccc(N2CCN(S(=O)(=O)C3(C(=O)NO)CCOCC3)CC2)nc1` [Example 136], the figure is 2.38 µM. On to `O=C(NO)C1(S(=O)(=O)N2CCN(c3ccc(SC(F)(F)F)cc3)CC2)CCN(Cc2ccccc2)CC1` [Example 152], for which the Ki is above 10 µM. Still for that read-out and setting: the value for `CCCCOc1ccc(N2CCN(S(=O)(=O)C3(C(=O)NO)CCN(c4ccc(O)cc4)CC3)CC2)cc1` [Example 121] was above 10 µM; that for `CCCCOc1ccc(N2CCN(S(=O)(=O)C3(C(=O)NO)CCN(C(=O)OCCF)CC3)CC2)cc1` [Example 113] was above 10 µM; that for `O=C(NO)C1(S(=O)(=O)N2CCN(c3ccc(OCCCC(F)(F)F)cc3)CC2)CCN(c2cnccn2)CC1` [Example 112] was above 10 µM. On the same count and under the same terms, as for `O=C(NO)C1(S(=O)(=O)N2CCN(c3ccc(OCCCC(F)(F)F)cc3)CC2)CCN(C2CC2)CC1` [Example 153], the figure is above 10 µM; as for `CCCCCc1ccc(N2CCN(S(=O)(=O)C3(C(=O)NO)CCN(c4ccc(C)cc4)CC3)CC2)cc1` [Example 147], above 10 µM; as for `CCCCOc1ccc(N2CCN(S(=O)(=O)C3(C(=O)NO)CCN(C(=O)OCCOC)CC3)CC2)cc1` [Example 141], 8.9 µM. The same measure, in the same setting: the value for `CCCCOc1ccc(N2CCN(S(=O)(=O)C3(C(=O)NO)CCOCC3)CC2)cc1` [Example 145] was above 10 µM; that for `CC(C)CCOc1ccc(N2CCN(S(=O)(=O)C3(C(=O)NO)CCN(C4CC4)CC3)CC2)cc1` [Example 128] was above 10 µM. For `CCCCOc1ccc(N2CCN(S(=O)(=O)C3(C(=O)NO)CCN(c4ncc(CC)cn4)CC3)CC2)cc1` [Example 155], the Ki was above 10 µM. Still for that read-out and setting: as for `COCCN1CCC(C(=O)NO)(S(=O)(=O)N2CCN(c3ccc(OCCCC(F)(F)F)cc3F)CC2)CC1` [Example 102], the figure is above 10 µM. As for `O=C(NO)C1(S(=O)(=O)N2CCN(c3ncccn3)CC2)CCOCC1` [Example 107], the inhibition constant (Ki) worked out at 1.19 µM. Still for that read-out and setting: the value for `O=C(NO)C1(S(=O)(=O)N2CCN(c3ncc(Br)cn3)CC2)CCOCC1` [Example 104] was 0.835 µM; that for `CCCCCc1cnc(N2CCN(S(=O)(=O)C3(C(=O)NO)CCOCC3)CC2)s1` [Example 56] was above 10 µM; that for `CCCCOc1ccc(N2CCN(S(=O)(=O)C3(C(=O)NO)CCN(C(=O)c4cc5ccccc5o4)CC3)CC2)cc1` [Example 127] was above 10 µM.

Turning to `O=C1c2ccccc2C(=O)N1CCCCc1ccc(N2CCN(S(=O)(=O)C3(C(=O)NO)CCOCC3)CC2)nc1` [Example 132], the Ki came out at 0.0661 µM. On the same count and under the same terms, as for `CCCCOc1ccc(N2CCN(S(=O)(=O)C3(C(=O)NO)CCN(c4nc5ccccc5o4)CC3)CC2)cc1` [Example 150], the figure is above 10 µM; as for `CCCCOc1ccc(N2CCN(S(=O)(=O)C3(C(=O)NO)CCN(C(=O)NCCOC)CC3)CC2)cc1` [Example 118], above 10 µM; as for `Cc1ccc(N2CCN(S(=O)(=O)C3(C(=O)NO)CCOCC3)CC2)nc1` [Example 138], 1.38 µM. On the same count and under the same terms, as for `CC(C)CCc1ccc(N2CCN(S(=O)(=O)C3(C(=O)NO)CCOCC3)CC2)nc1` [Example 133], the figure is above 10 µM; as for `CCCCOc1ccc(N2CCN(S(=O)(=O)C3(C(=O)NO)CCN(C(=O)OCC(F)(F)F)CC3)CC2)cc1` [Example 115], above 10 µM; as for `O=C(NO)C1(S(=O)(=O)N2CCN(c3ncc(Br)cn3)CC2)CCOCC1` [Example 103], 0.686 µM. On the same count and under the same terms, the value for `CCCCCCCCCc1cnc(N2CCN(S(=O)(=O)C3(C(=O)NO)CCOCC3)CC2)nc1` [Example 110] was above 10 µM.

These data come from US20050209278A1, “Piperidinyl- and piperazinyl-sulfonylmethyl hydroxamic acids and their use as protease inhibitors” (priority 2002, published 2005).
